Consider 11 compounds from BindingDB's records for patent US20240066136 (Cullgen (Shanghai), 2024).

The experiment addresses DNA damage-binding protein 1 (Homo sapiens, UniProt Q16531). Put plainly: Surface Plasmon Resonance (SPR) Binding Assay. As for the experimental part: Surface plasmon resonance (SPR) binding assay. All SPR studies were performed on a Biacore X100 plus or T200 instrument (GE Healthcare). Immobilization of purified His-DDB1 was carried out at 25° C. using a CM5 sensor chip. The surface was pre-equilibrated in HBS-EP running buffer (10 mM HEPES, pH7.4, 150 mM NaCl, 3 mM EDTA, 0.05% P20), then activated with EDC/NHS. His-DDB1 proteins were immobilized by amine coupling to a density of 11,000-13,000 resonance units (RUs) on flow cell FC2, whereas flow cell FC1 was used as reference. Both DDB1 immobilized and reference surfaces were deactivated with 1M ethanolamine.

As a reminder, the Kd is the constant that tells how readily two partners part at equilibrium.

A value given as a limit tells only on which side of the number the result lay.

Chain of DNA damage-binding protein 1 (Q16531 whole entry): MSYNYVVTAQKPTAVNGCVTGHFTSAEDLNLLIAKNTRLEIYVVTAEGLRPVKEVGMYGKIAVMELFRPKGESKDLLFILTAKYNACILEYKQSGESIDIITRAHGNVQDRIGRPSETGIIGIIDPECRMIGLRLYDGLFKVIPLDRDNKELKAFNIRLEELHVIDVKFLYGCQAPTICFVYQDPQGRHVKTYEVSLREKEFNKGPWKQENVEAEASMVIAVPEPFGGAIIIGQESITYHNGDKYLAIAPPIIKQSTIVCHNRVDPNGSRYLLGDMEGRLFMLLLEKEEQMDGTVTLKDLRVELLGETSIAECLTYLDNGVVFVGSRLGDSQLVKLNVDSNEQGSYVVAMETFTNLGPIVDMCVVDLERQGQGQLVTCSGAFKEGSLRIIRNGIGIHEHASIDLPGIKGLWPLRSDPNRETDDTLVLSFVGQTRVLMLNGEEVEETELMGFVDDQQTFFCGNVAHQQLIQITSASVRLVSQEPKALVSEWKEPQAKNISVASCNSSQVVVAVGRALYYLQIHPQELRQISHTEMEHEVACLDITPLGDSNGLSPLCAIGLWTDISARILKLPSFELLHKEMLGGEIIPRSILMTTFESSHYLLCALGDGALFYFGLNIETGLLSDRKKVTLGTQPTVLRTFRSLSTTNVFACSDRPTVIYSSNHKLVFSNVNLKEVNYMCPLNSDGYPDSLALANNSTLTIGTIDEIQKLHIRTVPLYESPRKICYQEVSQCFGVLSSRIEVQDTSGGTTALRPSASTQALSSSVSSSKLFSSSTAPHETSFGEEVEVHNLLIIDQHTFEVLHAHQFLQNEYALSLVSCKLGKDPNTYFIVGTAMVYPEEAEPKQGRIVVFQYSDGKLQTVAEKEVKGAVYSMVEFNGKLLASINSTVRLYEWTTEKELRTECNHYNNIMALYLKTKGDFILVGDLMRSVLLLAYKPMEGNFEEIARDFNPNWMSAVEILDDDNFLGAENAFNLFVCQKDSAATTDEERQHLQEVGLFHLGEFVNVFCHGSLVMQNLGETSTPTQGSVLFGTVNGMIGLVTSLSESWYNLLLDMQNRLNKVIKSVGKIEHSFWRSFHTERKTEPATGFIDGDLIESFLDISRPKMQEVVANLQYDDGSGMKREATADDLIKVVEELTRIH

Regarding `CCCC(=O)Nc1ccc(C(=O)Nc2ncc([N+](=O)[O-])s2)c(OC(=O)CCC)c1` [US20240066136,Compound B-24], the Kd entry was “in the range around 60 µM”. In the case of `CCCC(=O)Nc1ccc(C(=O)Nc2ncc([N+](=O)[O-])s2)c(NC(C)=O)c1` [US20240066136,Compound B-146] it was 20 to 100 µM; in that of `Cc1nc(NC(=O)c2ccccc2NC(=O)CCOCCOCCCOCCN)sc1[N+](=O)[O-]` [US20240066136,Compound BL-2], “in the range around 60 µM”; in that of `NCCOCCCOCCOCCC(=O)Nc1ccccc1C(=O)Nc1ncc([N+](=O)[O-])s1` [US20240066136,Compound BL-3], “in the range around 60 µM”. As for `CC(=O)Nc1cc(C(=O)NCCCCCCN)ccc1C(=O)Nc1nc(C)c([N+](=O)[O-])s1` [US20240066136,Compound BL-4], the figure is above 0.1 µM; as for `CC[C@H](C)[C@H](N)C(=O)N[C@@H](CC(C)C)C(=O)N1CCC[C@H]1C(=O)N[C@@H](CCCCN)C(=O)N[C@H](C(=O)N[C@@H](CC(C)C)C(=O)N[C@@H](Cc1cnc[nH]1)C(=O)N[C@@H](CCCCN)C(=O)N[C@@H](CCCNC(=N)N)C(=O)N[C@H](C(=O)N[C@@H](CC(C)C)C(=O)NCC(=O)N[C@@H](CC(C)C)C(=O)N[C@@H](CO)C(=O)O)[C@@H](C)O)C(C)C` [US20240066136,Peptide 1], below 20 µM; as for `CC[C@H](C)[C@H](N)C(=O)N[C@@H](CC(C)C)C(=O)N1CCC[C@H]1C(=O)N[C@@H](CCCCN)C(=O)N[C@H](C(=O)N[C@@H](CC(C)C)C(=O)N[C@@H](Cc1cnc[nH]1)C(=O)N[C@@H](CCCCN)C(=O)N[C@@H](CCCNC(=N)N)C(=O)N[C@H](C(=O)N[C@@H](CC(C)C)C(=O)NCC(=O)N[C@@H](CC(C)C)C(=O)O)[C@@H](C)O)C(C)C` [US20240066136,Peptide 3], below 20 µM. As for “H-ILPKVLHKRTFGL-OH [US20240066136,Peptide 4]”, the figure is below 20 µM.

Compound “H-ILPKVWHKRELGLS-OH [US20240066136,Peptide 2]” showed a Kd below 20 µM. In the case of “H-KVLHKRTLG-OH [US20240066136,Peptide 5]” it was below 20 µM; in that of “H-NFTSRLNRRASFP-OH [US20240066136,Peptide 6]”, below 20 µM.
